Laboratory results taken from patent US8168199B2, “Dipeptidyl peptidase IV inhibitors for the treatment of schizophrenia and depression” (priority 2000, dated 2012).

How the values were obtained:
[1] = system: Male WistarF/Han (WF) rats; assay: Social interaction (SI) test of anxiety, i.c.v. P32/98 and NPY (Example 3); type: in vivo, rat; conditions: i.c.v. 5 pmol-500 nmol
Description: Animals. […]
(§1) Animals were randomly divided into two sets of four experimental groups (n=5-6/group), which completed different consecutive SI test of anxiety. […] The time spent in active social interaction (SI-time), 1 h and 12 h food-intake were measured. […]
Social interaction (SI) test. […] Behavior was monitored using a video camera placed above the field inside the testing/isolation box. The SI behavior of both rats was recorded on-line from a monitor placed outside on top of the box. The following parameters were scored by an observer (HPN) unaware of the substrain of rats: duration of time spent in sniffing, following, crawling under and over other rats, but not passive body contact (resting, sleeping). […]
Statistical analysis. Data from repeated observations (food intake) were analyzed by two-way analyses of variance for repeated measures (ANOVA) (factors: “substrain” and “food intake” as repeated measure). […]

[2] = system: Male WistarF/Han (WF) rats; assay: 1 h and 12 h food-intake after i.c.v. P32/98 and NPY (Example 3); type: in vivo, rat
Description: Animals. Male WistarF/Han (WF) rats (Central Animal Laboratory, Hannover Medical School, Hannover, Germany, weighing 330-370 g, were housed in a sound-proof, temperature controlled (24.0±0.5° C.) room under specific pathogen free conditions with a 12/12 h dark/light cycle (lights on at 07.00 with illumination level of 80 Lux). Food (Altromin lab chow pellets) and tap water were available ad libitum. Under ketamine/xylasine (100/5 mg/kg, i.p.) anesthesia, the rats were fixed in a Kopf stereotaxic frame and implanted with cannulae (Plastic One, Inc., Roanoke, Va., USA) above the lateral ventricle. All research and animal care procedures were approved by the Lower Saxony district government (Hannover, Germany) and followed principles described in the European Community's Council Directive of 24 Nov. 1986 (86/609/EEC).
Surgery and i.c.v. application. For surgery, rats were anesthetized and prepared with i.c.v. cannulae (coordinates: A: −0.7 mm caudal, L: 1.4 mm lateral to bregma; and V3.2 mm ventral to the skull surface; tooth bar +3.0 above ear bars) using standard stereotaxic procedures as described in detail elsewhere (von Hörsten et al., 1998a, b, c). After a 7-day recovery period, successful ventricle cannulation was confirmed by an angiotensin drinking response (von Hörsten et al., 1998a). Rats showing a positive drinking response (n=59) were then habituated to experimental handling by daily sham injections for seven days.
as §1
Statistical analysis. Data from repeated observations (food intake) were analyzed by two-way analyses of variance for repeated measures (ANOVA) (factors: “substrain” and “food intake” as repeated measure). Data obtained from simple measures such as DPIV activity or SI time were analyzed by one-way (factor: “substrain”) ANOVA. […]

CC[C@H](C)[C@H](N)C(=O)N1CCSC1 [P32/98]
time spent in active social interaction (SI-time), P32/98 alone [1]: “bell-shaped” dose-dependent anxiolytic-like effects | dose at which the 1 h feeding effect reached significance ([2]; i.c.v.): 0.05 nmol | amount of food eaten within 1 h ([2]; i.c.v. P32/98 5 pmol-500 nmol, NPY 50 pmol-1.6 nmol, dark cycle): mild feeding effect
